# Assays:
# Human dermal fibroblasts [1] = test: Cell activity (AlamarBlue) after UV irradiation through a solution of the UV wavelength conversion substance; format: cell-based; settings: UV 0, 10, 25, 50, 75 or 100 mJ/cm^2, FIG. 3
# Description: (§1) A cell sample was prepared as follows: • 1. Human dermal fibroblasts and human skin keratinocytes purchased from Kurabo Industries Ltd. were used. A cell suspension (1 mL) stored in liquid nitrogen was thawed in a water bath (37° C.) to an extent that small ice pellets remained, and then diluted with 9 mL of warm medium. • 2. The diluted suspension was mixed gently and then transferred to a T75 flask and incubated overnight at 37° C. • 3. The next day, the medium was replaced with 10 mL of fresh medium. • 4. The medium was replaced periodically (once every 2 days for fibroblasts and once every 2 to 3 days for keratinocytes) and cell proliferation was continued. Meanwhile, the cells were observed using a microscope, and it was confirmed that the cells grew in the correct form. • 5. After the cells reached about 80% confluence, the cells were passaged. The cells were passaged by washing the cells once with 10 mL of warm PBS, adding 5 mL of warm trypsin to a T75 flask, covering the bottom of the flask with a trypsin solution, followed by aspirating at room temperature for 1 minute. • 6. The flask was allowed to stand in an oven at 37° C. for (maximum) 2 minutes for fibroblasts and (maximum) 7 minutes for keratinocytes. The cells were observed using a microscope and confirmed to be small and oval. • 7. Thereafter, the side of the T75 flask was lightly tapped to release the cells. […]
# Human dermal fibroblasts [2] = test: Restoration of cell activity decreased by prior UV irradiation (AlamarBlue); format: cell-based; settings: FIG. 5
# Description: as §1
substance,measurement,setting,value
C-phycocyanin,cell activity (relative fluorescence intensity),Human dermal fibroblasts [1]; 0.4% C-phycocyanin solution,the decrease in cell activity was suppressed
same,cell activity (relative fluorescence intensity),Human dermal fibroblasts [1]; 2% C-phycocyanin solution,the cell activity was even increased
same,"cell activity recovery effect, comparison of concentrations",Human dermal fibroblasts [2]; 0.4% versus 2% C-phycocyanin after 400 mJ/cm^2 pre-irradiation,equivalent at concentrations of 0.4% and 2%
same,cell activity (relative fluorescence intensity) of cells with once decreased activity,"Human dermal fibroblasts [2]; pre-irradiation 400 mJ/cm^2 without substance, then UV 0-200 mJ/cm^2 through 0.4% or 2% C-phycocyanin",cell activity was recovered
